Assay results published in ChEMBL document CHEMBL1143904, “Beta-lactam congeners of orlistat as inhibitors of fatty acid synthase” (Bioorg Med Chem Lett, 2008).
The source made the active and inactive calls. The calls are words filed in the database; no cut-off is given here.

Test: Inhibition of recombinant fatty acid synthase thioesterase domain by fluorogenic assay

Structure (SMILES) | IC50 | Activity
CCCCCCCCCCC[C@@H](C[C@H]1[C@H](CCCCCC)C(=O)N1OCc1ccccc1)O[Si](C)(C)C(C)(C)C | 8.6 µM | –
CCCCCC[C@@H]1C(=O)N(OCc2ccccc2)[C@H]1C[C@H](CCCCC)OC(=O)[C@@H](NC=O)C(C)C | 58.2 µM | –
CCCCCCCCCCC[C@H](O)C[C@H]1[C@H](CCCCCC)C(=O)N1OCc1ccccc1 | 86.8 µM | –
CCCCCCCCCCC[C@@H](O)C[C@@H]1[C@@H](CCCCCC)C(=O)N1OCc1ccccc1 | 61.2 µM | –
CCCCCC[C@@H]1C(=O)N(OCc2ccccc2)[C@H]1C[C@@H](O)CCCCC | 50.5 µM | –
CCCCCCCCCCC[C@H](C[C@@H]1[C@@H](CCCCCC)C(=O)N1OCc1ccccc1)O[Si](C)(C)C(C)(C)C | 97.4 µM | –

Results, then the compound that gave them:

IC50 | Activity | Structure (SMILES)
68.9 µM | – | CCCCCCCCCCC[C@@H](C[C@H]1[C@H](CCCCCC)C(=O)N1OCc1ccccc1)OC(=O)CNC=O
67.6 µM | – | CCCCCC[C@@H]1C(=O)N[C@H]1C[C@@H](O)CCCCC
– | inactive | CCCCCCCCCCC[C@@H](C[C@@H]1NC(=O)[C@H]1CCCCCC)OC(=O)CNC=O
39.2 µM | – | CCCCCCCCCCC[C@H](C[C@@H]1[C@@H](CCCCCC)C(=O)N1OCc1ccccc1)OC(=O)CNC=O
– | inactive | CCCCCCCCCCC[C@H](C[C@H]1NC(=O)[C@@H]1CCCCCC)OC(=O)CNC=O
